Data on one molecule can be found in patent US5409899A, “Pseudopeptide compounds having anti-inflammatory activity” (Adir et Compagnie, priority 1992, dated 1995).

This test deals with T1, B2 receptor (Oryctolagus cuniculus, UniProt Q28642).
T1 construct: rabbit jugular vein: B2 receptor; from tissue; host or cells: rabbit jugular vein
T1 sequence (Q28642 1-367): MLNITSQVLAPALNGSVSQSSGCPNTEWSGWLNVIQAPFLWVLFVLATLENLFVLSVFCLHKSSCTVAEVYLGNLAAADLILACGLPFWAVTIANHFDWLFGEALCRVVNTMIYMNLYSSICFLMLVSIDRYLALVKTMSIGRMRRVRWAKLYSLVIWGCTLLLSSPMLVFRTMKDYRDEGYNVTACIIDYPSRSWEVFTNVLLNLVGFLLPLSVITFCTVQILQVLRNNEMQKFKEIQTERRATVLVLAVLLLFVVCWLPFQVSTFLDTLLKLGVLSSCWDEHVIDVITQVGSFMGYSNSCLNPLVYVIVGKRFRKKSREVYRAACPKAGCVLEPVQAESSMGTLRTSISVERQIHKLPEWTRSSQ
The test can be described thus: Inhibition of bradykinin-induced contraction of rabbit jugular vein (B2 receptor). To be noted: read-out: pA2 (negative logarithm of the molar concentration which necessitates a doubling of the bradykinin concentration to obtain the same effect) (converted). The class given is cell-based. From the text:
Pharmacological study of the compound of the invention: rabbit jugular vein: B2 receptor

Structures can show the parent of a compound that is named as a salt. Square brackets hold non-standard residues; d marks the D form. Peptide text beside a SMILES is read from it. * marks the point of attachment. Benzoyl(4-guanidino) = N=C(N)Nc1ccc(C(=O)*)cc1; Oic = O=C(O)[C@@H]1C[C@@H]2CCCC[C@@H]2N1; Hyp = O=C(O)[C@@H]1C[C@@H](O)CN1; dTic = O=C(O)[C@H]1Cc2ccccc2CN1; 2Thi = N[C@@H](Cc1cccs1)C(=O)O

`N=C(N)NCCC[C@H](NC(=O)[C@@H]1C[C@@H]2CCCC[C@@H]2N1C(=O)[C@H]1Cc2ccccc2CN1C(=O)[C@H](CO)NC(=O)[C@H](Cc1cccs1)NC(=O)CNC(=O)[C@@H]1C[C@@H](O)CN1C(=O)[C@@H]1CCCN1C(=O)[C@H](CCCNC(=N)N)NC(=O)c1ccc(NC(=N)N)cc1)C(=O)O` [Example 1, G-Arg-Pro-Hyp-Gly-Thia-Ser-(D)Tic-Oic-Arg-OH trifluoroacetate] ({Benzoyl(4-guanidino)}-RP[Hyp]G[2Thi]S[dTic][Oic]R-OH): the Kb is 0.186 nM.
